Experimental data: US20210395651A1, “COMPOUNDS STABILIZING HYDROLASES IN LIQUIDS” (BASF SE, priority 2018, published 2021)

Molecular target: T1, Lipolase® 100L (Thermomyces lanuginosus, UniProt O59952)
T1 construct: purchased Sigma-Aldrich
T1 sequence (O59952 23-291): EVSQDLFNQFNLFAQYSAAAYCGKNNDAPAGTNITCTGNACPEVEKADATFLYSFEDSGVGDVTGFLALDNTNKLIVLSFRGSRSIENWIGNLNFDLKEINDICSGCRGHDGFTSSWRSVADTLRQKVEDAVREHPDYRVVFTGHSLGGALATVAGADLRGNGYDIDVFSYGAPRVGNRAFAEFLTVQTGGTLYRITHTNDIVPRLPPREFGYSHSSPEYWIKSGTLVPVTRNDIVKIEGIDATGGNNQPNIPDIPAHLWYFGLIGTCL
Test: Lipase storage stability in liquid formulations at 37° C. (pNP-valerate activity)
Assay type: biochemical, Thermomyces lanuginosa
Details: for lipase activity, 3 d: 3 d storage at 37° C.; for lipase activity, 7 d: 7 d storage at 37° C.; for lipase activity, 14 d: 14 d storage at 37° C.; for lipase activity, 21 d: 21 d storage at 37° C.; for lipase activity, 28 d: 28 d storage at 37° C.; for lipase activity, 35 d: 35 d storage at 37° C.; for lipase activity, T0: relative to 100% value of reference formulation at time 0
Experimental: The storage stability of Lipase was assessed at 37° C.
Base test formulations were manufactured by making base formulations I to V by mixing the components according to Table 1.
The respective component (a) or comparative compound was added, if applicable, to the respective base formulation in amounts as indicated in Table 1.
Lipase used: Lipolase® 100L (CAS-No. 9001-62-1, EC-No. 232-619-9) was purchased from Sigma-Aldrich.
The amount of lipase as provided in Table 1 refers to active protein.
Water was added to accomplish the balance to 100.
Lipolase activity at certain points in time as indicated in Table 2 was be determined by employing pNitrophenol-valerate (2.4 mM pNP-C5 in 100 mM Tris pH 8.0, 0.01% Triton X100) as a substrate. The absorption at 405 nm was measured at 20° C. every 30 seconds over 5 minutes.
The slope (absorbance increase at 405 nm per minute) of the time dependent absorption-curve is directly proportional to the activity of the lipase.
The […] activity values provided in Table 2 were calculated referring to the 100% value determined in the reference formulation at the time 0.
The nomenclature of formulations is as follows: the Roman number before the full stop characterizes the base formulation, the Arabian number the type of compound (A.# compound according to invention (component (a)); (B.#) comparative compound).

[1] = base formulation I. (Lipolase 0.2 wt%, tested compound 2.5 wt%)
[2] = base formulation III. (Lipolase 0.2 wt%, tested compound 2.0 wt%)
[3] = base formulation IV. (Lipolase 0.2 wt%, tested compound 2.0 wt%)
[4] = base formulation V. (Lipolase 0.2 wt%, tested compound 2.0 wt%)
[5] = base formulation II. (Lipolase 0.2 wt%, tested compound 2.5 wt%)

SMILES	lipase activity, 3 d [1] [%]	lipase activity, 7 d [1] [%]	lipase activity, 14 d [1] [%]	lipase activity, 21 d [1] [%]	lipase activity, 28 d [1] [%]	lipase activity, 35 d [1] [%]	lipase activity, T0 [1] [%]	lipase activity, 3 d [2] [%]	lipase activity, 7 d [2] [%]	lipase activity, 14 d [2] [%]	lipase activity, 21 d [2] [%]	lipase activity, 28 d [2] [%]	lipase activity, 35 d [2] [%]	lipase activity, T0 [2] [%]	lipase activity, 3 d [3] [%]	lipase activity, 7 d [3] [%]	lipase activity, 14 d [3] [%]	lipase activity, 21 d [3] [%]	lipase activity, 28 d [3] [%]	lipase activity, 35 d [3] [%]	further results
O=C(O)CC(O)(CC(=O)O)C(=O)O [B.1, citric acid, reference compound]	89	81	73	61	50	29	100	92	78	70	51	39	30	102	95	82	70	58	43	36	lipase activity, T0 [3]: 97%; lipase activity, 3 d [4]: 93%; lipase activity, 7 d [4]: 86%; lipase activity, 14 d [4]: 74%; lipase activity, 21 d [4]: 63%; lipase activity, 28 d [4]: 52%; lipase activity, 35 d [4]: 43%; lipase activity, T0 [4]: 98%
O=C(CC(O)(CC(=O)OCc1ccccc1)C(=O)OCc1ccccc1)OCc1ccccc1 [A.8, Tribenzylcitrate]	–	–	–	–	–	–	–	–	–	–	–	–	–	–	–	–	–	–	–	–	lipase activity, 3 d [5]: 94%; lipase activity, 7 d [5]: 90%; lipase activity, 14 d [5]: 87%; lipase activity, 21 d [5]: 83%; lipase activity, 28 d [5]: 81%; lipase activity, 35 d [5]: 77%; lipase activity, T0 [5]: 97%; lipase activity, 3 d [4]: 96%; lipase activity, 7 d [4]: 93%; lipase activity, 14 d [4]: 88%; lipase activity, 21 d [4]: 85%; lipase activity, 28 d [4]: 82%; lipase activity, 35 d [4]: 77%; lipase activity, T0 [4]: 98%
CCCOC(=O)CC(O)(CC(=O)OCCC)C(=O)OCCC [A.2, Tripropylcitrate]	100	98	94	90	87	82	101	100	101	97	94	90	87	102	–	–	–	–	–	–	–
CCOC(=O)CC(CC(=O)OCC)(OC(C)=O)C(=O)OCC [A.5, Acetyltriethylcitrate]	100	97	92	86	81	74	97	95	93	88	85	80	77	98	–	–	–	–	–	–	lipase activity, 3 d [5]: 98%; lipase activity, 7 d [5]: 97%; lipase activity, 14 d [5]: 93%; lipase activity, 21 d [5]: 90%; lipase activity, 28 d [5]: 85%; lipase activity, 35 d [5]: 81%; lipase activity, T0 [5]: 102%
CCCCOC(=O)CC(CC(=O)OCCCC)(OC(C)=O)C(=O)OCCCC [A.4, Acetyltributylcitrate]	104	99	93	88	83	78	102	–	–	–	–	–	–	–	97	95	93	89	86	83	lipase activity, T0 [3]: 101%; lipase activity, 3 d [4]: 100%; lipase activity, 7 d [4]: 94%; lipase activity, 14 d [4]: 90%; lipase activity, 21 d [4]: 85%; lipase activity, 28 d [4]: 80%; lipase activity, 35 d [4]: 74%; lipase activity, T0 [4]: 101%
CCCCOC(=O)CC(O)(CC(=O)OCCCC)C(=O)OCCCC [A.3, Tributylcitrate]	–	–	–	–	–	–	–	–	–	–	–	–	–	–	100	96	95	90	88	85	lipase activity, T0 [3]: 99%; lipase activity, 3 d [4]: 97%; lipase activity, 7 d [4]: 92%; lipase activity, 14 d [4]: 88%; lipase activity, 21 d [4]: 83%; lipase activity, 28 d [4]: 80%; lipase activity, 35 d [4]: 73%; lipase activity, T0 [4]: 101%
CCOC(=O)CC(O)(CC(=O)O)C(=O)O (stereo not shown) [A.6, Monoethylcitrate]	–	–	–	–	–	–	–	96	91	87	82	79	74	96	96	92	89	86	85	78	lipase activity, 3 d [5]: 100%; lipase activity, 7 d [5]: 95%; lipase activity, 14 d [5]: 91%; lipase activity, 21 d [5]: 84%; lipase activity, 28 d [5]: 80%; lipase activity, 35 d [5]: 71%; lipase activity, T0 [5]: 102%; lipase activity, T0 [3]: 98%
